Our source for the IC50, melting point and isolated as metabolite values is patent US6803372B2, “Spiro compounds” (Banyu Pharmaceutical Co., Ltd., priority 1999, dated 2004).

pIC50: −log10 of the molar value. A value given as a limit tells only on which side of the number the result lay.

For one series, the target named is T1, human NPY Y5 receptor (Homo sapiens, UniProt Q15761).
T1 construct: expressed in transfected cells; host or cells: COS-7, CHO and LM(tk-)
T1 sequence (Q15761 1-445): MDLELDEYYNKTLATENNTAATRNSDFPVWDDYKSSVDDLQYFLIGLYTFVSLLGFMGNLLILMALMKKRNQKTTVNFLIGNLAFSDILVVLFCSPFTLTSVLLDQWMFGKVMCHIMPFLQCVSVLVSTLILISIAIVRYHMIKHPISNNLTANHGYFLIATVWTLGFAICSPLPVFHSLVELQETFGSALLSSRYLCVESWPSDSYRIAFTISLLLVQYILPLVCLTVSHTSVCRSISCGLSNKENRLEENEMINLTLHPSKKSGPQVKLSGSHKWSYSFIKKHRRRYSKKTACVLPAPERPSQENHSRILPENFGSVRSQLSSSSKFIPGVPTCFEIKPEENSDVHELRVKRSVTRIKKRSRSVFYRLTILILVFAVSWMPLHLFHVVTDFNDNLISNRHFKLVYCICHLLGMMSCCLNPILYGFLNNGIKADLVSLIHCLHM
Nature of the series: NPY binding inhibition test (Pharmacological Test 1). The settings on record: [125I]peptideYY, membrane sample from cells expressing NPY Y5 receptor, 25° C., 2 hours; read-out: IC50 of the test compound against specific peptideYY binding. An excerpt: Pharmacological Test 1 (NPY Binding Inhibition Test)
cDNA sequence encoding human NPY Y5 receptor [International patent publication number WO96/16542] was cloned into expression vectors pcDNA3, pRc/RSV (made by Invitrogen Inc.) and pCI-neo (made by Promega Inc.). This obtained expression vectors were transfected to host cells COS-7, CHO and LM(tk-) (American Type Culture Collection) by cationic lipid method [Proceedings of the National Academy of Sciences of the United States of America, 84: 7413(1987)] to give NPY Y5 receptor expression cells.
A membrane sample prepared from the cells which expressed NPY Y5 receptor was incubated together with a test compound and [^125I]peptideYY (NEN) (20,000 cpm) in an assay buffer (25 mM Tris buffer, pH7.4, containing 10 mM magnesium chloride, 1 mM phenylmethylsulfonyl fluoride, 0.1% bacitracin and 0.5% bovine serum albumin) at 25° C. for 2 hours, then filtered through a glass filter GF/C and washed with 5 mM Tris buffer (pH7.4) containing 0.3% BSA. The radioactivity of the cake on the glass filter was measured. Nonspecific binding was measured in the presence of 1 μM peptideYY and a 50% Inhibitory Concentration (IC50) of the test compound against specific peptideYY binding was determined [Endocrinology, 131: 2090(1992)].

Series [1] is described as follows: Isolation of metabolites of compound of example 101. The settings on record: parent: compound of example 101.

Turning to `O=C1Cc2ccccc2C2(CCN(C(=O)Nc3cn(-c4ccc5ccccc5n4)cn3)CC2)N1` [Example 9, 3,4-Dihydro-3-oxo-N-[1-(2-quinolyl)-4-imidazolyl]spiro[isoquinoline-1(2H),4′-piperidine]-1′-carboxamide], the melting point was 264 to 266 °C. For the same molecule, on human NPY Y5 receptor, the pIC50 was 9.14.
`O=C1OC2(CCN(C(=O)Nc3ccc4ncc(C(F)(F)F)cc4n3)CC2)c2ccccc21` [Example 26, 3-Oxo-N-(7-trifluoromethylpyrido[3,2-b]pyridin-2-yl)-spiro[isobenzofuran-1(3H),4′-piperidine]-1′-carboxamide]: the melting point is 246 to 248 °C. In addition, the pIC50 on human NPY Y5 receptor was 8.60.
As to `O=C1OC2(CCC(C(=O)Nc3ncc(-c4ccccc4)cn3)CC2)c2ccccc21` (stereo not drawn) [Example 50, Trans-3′-oxo-N-(5-phenyl-2-pyrimidinyl)spiro[cyclohexane-1,1′(3′H)-isobenzofuran]-4-carboxamide], the pIC50 on human NPY Y5 receptor is 9.32.
On to `O=C1OC2(CCC(C(=O)Nc3cn(-c4cnc5ccccc5c4)cn3)CC2)c2ccccc21` (stereo not drawn) [Example 55, Trans-3′-oxo-N-[1-(3-quinolyl)-4-imidazolyl]spiro[cyclohexane-1,1′(3′H)-isobenzofuran]-4-carboxamide], for which the melting point was greater than 300 °C. At human NPY Y5 receptor, the pIC50 was 9.23.
As to `O=C1OC2(CCC(C(=O)Nc3ccn(-c4ccccc4F)n3)CC2)c2c[n+]([O-])ccc21` (stereo not drawn) [Example 107, trans-N-[1-(2-fluorophenyl)-3-pyrazolyl]-3-oxospiro[6-azaisobenzofuran-1(3H),1′-cyclohexane]-4′-carboxamide 6-oxide], the negative logarithm of the IC50 (pIC50) on human NPY Y5 receptor is 8.34. For the same molecule, the isolated as metabolite result in series [1] was “isolated as metabolites of compound of example 101”.
On the same counts, the results for `O=C1OC2(CCC(C(=O)Nc3ccn(-c4ccc(O)cc4F)n3)CC2)c2cnccc21` (stereo not drawn) [Example 108, trans-N-[1-(2-fluoro-4-hydroxyphenyl)-3-pyrazolyl]-3-oxospiro[6-azaisobenzofuran-1(3H),1′-cyclohexane]-4′-carboxamide] are 8.52 and “isolated as metabolites of compound of example 101”.
Take `O=C1OC2(CCC(O)(C(=O)Nc3ccn(-c4ccccc4F)n3)CC2)c2cnccc21` (stereo not drawn) [Example 109, cis-N-[1-(2-fluorophenyl)-3-pyrazolyl]-4′-hydroxy-3-oxospiro[6-azaisobenzofuran-1(3H),1′-cyclohexane]-4′-carboxamide]: the isolated as metabolite result in series [1] is given as “isolated as metabolites of compound of example 101”.

In general, pIC50 refers to the IC50 on a negative log10 scale, so that one unit is a factor of ten. One may read the melting point as the temperature of the solid-liquid transition.
